{"source": "patent US8735431B2", "about": "“Active compound combinations having insecticidal properties” (priority 2003, dated 2014)", "type_in_all_cases": "in vivo", "key": {"Aphis gossypii": {"system": "Aphis gossypii", "test": "Aphis gossypii test (cotton leaves dipped)", "conditions": "4 ppm", "experimental": "(§1) To produce a suitable preparation of active compound, 1 part by weight of active compound is mixed with the stated amounts of solvent and emulsifier, and the concentrate is diluted with emulsifier-containing water to the desired concentration.\nCotton leaves (Gossypium hirsutum) which are heavily infested by the cotton aphid (Aphis gossypii) are treated by being dipped into the preparation of active compound of the desired concentration. After the desired period of time, the kill in % is determined. 100% means that all aphids have been killed; 0% means that none of the aphids have been killed. The determined kill ratios are entered into Colby's formula (see page 39)."}, "Heliothis armigera": {"system": "Heliothis armigera", "test": "Heliothis armigera test (soybean shoots dipped)", "experimental": "as §1\nSoybean shoots (Glycine max) are treated by being dipped into the preparation of active compound of the desired concentration and are populated with caterpillars of the cotton bollworm (Heliothis armigera) while the leaves are still moist.\n(§2) After the desired period of time, the kill in % is determined. 100% means that all caterpillars have been killed; 0% means that none of the caterpillars have been killed. The determined kill ratios are entered into Colby's formula (see page 39)."}, "Myzus persicae": {"system": "Myzus persicae", "test": "Myzus persicae test (cabbage leaves dipped)", "conditions": "20 ppm", "experimental": "as §1\nCabbage leaves (Brassica oleracea) which are heavily infested by the green peach aphid (Myzus persicae) are treated by being dipped into the preparation of active compound of the desired concentration.\nAfter the desired period of time, the kill in % is determined. 100% means that all aphids have been killed; 0% means that none of the aphids have been killed. The determined kill ratios are entered into Colby's formula (see page 39)."}, "[1]": {"system": "Phaedon cochleariae larvae", "test": "Phaedon cochleariae larvae test (cabbage leaves dipped)", "experimental": "as §1\nCabbage leaves (Brassica oleracea) are treated by being dipped into the preparation of active compound of the desired concentration and are populated with larvae of the mustard beetle (Phaedon cochleariae) while the leaves are still moist.\nAfter the desired period of time, the kill in % is determined. 100% means that all beetle larvae have been killed; 0% means that none of the beetle larvae have been killed. The determined kill ratios are entered into Colby's formula (see page 39)."}, "[2]": {"system": "Plutella xylostella, normally sensitive strain", "test": "Plutella xylostella test (normally sensitive strain)", "experimental": "as §1\nCabbage leaves (Brassica oleracea) are treated by being dipped into the preparation of active compound of the desired concentration and are populated with caterpillars of the diamondback moth (Plutella xylostella, normally sensitive strain) while the leaves are still moist.\nas §2"}, "[3]": {"system": "Plutella xylostella, resistant strain", "test": "Plutella xylostella test (resistant strain)", "experimental": "as §1\nCabbage leaves (Brassica oleracea) are treated by being dipped into the preparation of active compound of the desired concentration and are populated with caterpillars of the diamondback moth (Plutella xylostella, resistant strain) while the leaves are still moist.\nas §2"}, "Spodoptera exigua": {"system": "Spodoptera exigua", "test": "Spodoptera exigua test (cabbage leaves dipped)", "experimental": "as §1\nCabbage leaves (Brassica oleracea) are treated by being dipped into the preparation of active compound of the desired concentration and are populated with caterpillars of the beet army worm (Spodoptera exigua) while the leaves are still moist.\nas §2"}}}
{"smiles": "Cc1cc(Cl)cc(C(=O)NC(C)C)c1NC(=O)c1cc(C(F)(F)F)nn1-c1ncccc1Cl", "note": "[Example I-1-9]", "values": [{"measurement": "Kill rate in % after 6d found", "setting": "Aphis gossypii", "result": 10, "unit": "%"}, {"measurement": "Kill rate in % after 6d found", "setting": "Heliothis armigera; 0.0064 ppm", "result": 20, "unit": "%"}, {"measurement": "Kill rate in % after 3d found", "setting": "Heliothis armigera; 0.032 ppm, 3 d", "result": 45, "unit": "%"}, {"measurement": "Kill rate in % after 6d found", "setting": "Heliothis armigera; 0.032 ppm", "result": 0, "unit": "%"}, {"measurement": "Kill rate in % after 1d found", "setting": "Myzus persicae", "result": 0, "unit": "%"}, {"measurement": "Kill rate in % after 6d found", "setting": "[1]; 0.0064 ppm", "result": 0, "unit": "%"}, {"measurement": "Kill rate in % after 6d found", "setting": "[2]; 0.00128 ppm", "result": 0, "unit": "%"}, {"measurement": "Kill rate in % after 4d found", "setting": "[2]; 0.16 ppm, 4 d", "result": 0, "unit": "%"}, {"measurement": "Kill rate in % after 4d found", "setting": "[3]; 0.00128 ppm", "result": 0, "unit": "%"}, {"measurement": "Kill rate in % after 6d found", "setting": "[3]; 0.032 ppm, 6 d", "result": 10, "unit": "%"}, {"measurement": "Kill rate in % after 6d found", "setting": "Spodoptera exigua; 0.0064 ppm", "result": 15, "unit": "%"}, {"measurement": "Kill rate in % after 6d found", "setting": "Spodoptera exigua; 0.032 ppm", "result": 10, "unit": "%"}]}
{"smiles": "CC[S+]([O-])c1c(C#N)nn(-c2c(Cl)cc(C(F)(F)F)cc2Cl)c1N", "note": "(stereo not drawn) [(2-17) ethiprole, ethiprole, reference compound]", "values": [{"measurement": "Kill rate in % after 1d found", "setting": "Myzus persicae", "result": 50, "unit": "%"}]}
{"smiles": "COC(=O)N(C(=O)N1COC2(C(=O)OC)Cc3cc(Cl)ccc3C2=N1)c1ccc(OC(F)(F)F)cc1", "note": "(stereo not drawn) [(2-21) indoxacarb, indoxacarb, reference compound]", "values": [{"measurement": "Kill rate in % after 6d found", "setting": "[1]; 0.032 ppm", "result": 10, "unit": "%"}, {"measurement": "Kill rate in % after 6d found", "setting": "Spodoptera exigua; 0.16 ppm", "result": 70, "unit": "%"}]}
{"smiles": "N#Cc1nn(-c2c(Cl)cc(C(F)(F)F)cc2Cl)c(N)c1[S+]([O-])C(F)(F)F", "note": "(stereo not drawn) [(2-16) fipronil, fipronil, reference compound]", "values": [{"measurement": "Kill rate in % after 6d found", "setting": "Aphis gossypii", "result": 0, "unit": "%"}, {"measurement": "Kill rate in % after 6d found", "setting": "[2]; 0.0064 ppm", "result": 15, "unit": "%"}, {"measurement": "Kill rate in % after 4d found", "setting": "[3]; 0.0064 ppm", "result": 0, "unit": "%"}]}
